Results published in ChEMBL document CHEMBL3217488, “Preliminary in vitro evaluation of N-(benzofuroxan-5-yl)methylene benzohydrazide derivatives as potential anti-Trypanosoma cruzi agents” (Medchemcomm, 2012).

Tests used:
[1] = test system: Trypanosoma cruzi; assay: Antitrypanosomal activity against epimastigote stage of Trypanosoma cruzi Y assessed as parasite growth inhibition at 10 ug/mL after 72 hrs by spectrophotometric analysis relative to control; format: functional; conditions: read-out: GI
[2] = test system: Trypanosoma cruzi; assay: Antitrypanosomal activity against epimastigote stage of Trypanosoma cruzi Y assessed as parasite growth inhibition at 20 ug/mL after 72 hrs by spectrophotometric analysis relative to control; format: functional; conditions: read-out: GI
[3] = test system: Trypanosoma cruzi; assay: Antitrypanosomal activity against epimastigote stage of Trypanosoma cruzi Y assessed as parasite growth inhibition at 50 ug/mL after 72 hrs by spectrophotometric analysis relative to control; format: functional; conditions: read-out: GI
[4] = Genotoxicity in human bronchial epithelial cells assessed as increase of micronucleated cells at 50 ug/mL after 24 hrs by acridine orange staining-based fluorescence microscopic analysis; format: toxicity; conditions: epithelial cell

SMILES | inhibition of growth at 10 µg/mL [1] [%] | inhibition of growth at 20 µg/mL [2] [%] | inhibition of growth at 50 µg/mL [3] [%] | Activity [4]
O=C(N/N=C/c1ccc2c(c1)no[n+]2[O-])c1ccc(Cl)c(Cl)c1 | 51 | 81 | 75 | 
O=C(N/N=C/c1ccc2c(c1)no[n+]2[O-])c1ccc([N+](=O)[O-])c(C(F)(F)F)c1 | 54 | 82 | 82 | 
O=C(N/N=C/c1ccc2c(c1)no[n+]2[O-])c1ccc(Cl)cc1Cl | 42 | 72 | 89 | 
O=C(N/N=C/c1ccc2c(c1)no[n+]2[O-])c1ccc([N+](=O)[O-])cc1 | 13 | 73 | 73 | 
CCc1ccc(C(=O)N/N=C/c2ccc3c(c2)no[n+]3[O-])cc1 | 47 | 76 | 85 | 
CCOc1ccc(C(=O)N/N=C/c2ccc3c(c2)no[n+]3[O-])cc1 | 32 | 68 | 66 | 
Cc1ccc(C(=O)N/N=C/c2ccc3c(c2)no[n+]3[O-])cc1 | 34 | 62 | 76 | 
O=C(N/N=C/c1ccc2c(c1)no[n+]2[O-])c1ccc(Br)cc1 | 44 | 76 | 58 | 
O=C(N/N=C/c1ccc2c(c1)no[n+]2[O-])c1ccc(Cl)cc1 | 54 | 83 | 62 | Non-toxic
CC(=O)c1ccc(C(=O)N/N=C/c2ccc3c(c2)no[n+]3[O-])cc1 | 14 | 34 | 83 | 
O=C(N/N=C/c1ccc2c(c1)no[n+]2[O-])c1ccccc1 | 46 | 82 | 95 | Non-toxic
Nc1ccc(C(=O)N/N=C/c2ccc3c(c2)no[n+]3[O-])cc1 | 7 | 24 | 42 | 
N#Cc1ccc(C(=O)N/N=C/c2ccc3c(c2)no[n+]3[O-])cc1 | 8 | 39 | 44 | 
O=C(N/N=C/c1ccc2c(c1)no[n+]2[O-])c1ccc(O)cc1 | 0 | 3 | 47 | 
O=C(N/N=C/c1ccc2c(c1)no[n+]2[O-])c1ccc(F)cc1 | 45 | 79 | 78 | 
O=C(N/N=C/c1ccc2c(c1)no[n+]2[O-])c1ccc(I)cc1 | 54 | 81 | 60 | 
O=C(N/N=C/c1ccc2c(c1)no[n+]2[O-])c1ccc(C(F)(F)F)cc1 | 65 | 86 | 82 | Non-toxic
COc1ccc(C(=O)N/N=C/c2ccc3c(c2)no[n+]3[O-])cc1 | 36 | 69 | 76 | 
CN(C)c1ccc(C(=O)N/N=C/c2ccc3c(c2)no[n+]3[O-])cc1 | 4 | 7 | 10 | 
NS(=O)(=O)c1ccc(C(=O)N/N=C/c2ccc3c(c2)no[n+]3[O-])cc1 | 5 | 9 | 12 | 
O=C(Cn1ccnc1[N+](=O)[O-])NCc1ccccc1 [BENZNIDAZOLE] | 44 | 66 | 77 | 
